{
  "source": "patent US8268635B2",
  "about": "“Methods of identifying agents that selectively activate p38 and/or NKkB signaling” (priority 2006, dated 2012)",
  "key": {"JNK": {"system": "JNK", "experiment": "JNK phosphorylation in HL60 cells (western blot)", "assay_type": "cell-based", "conditions": "15 min; TNF 100 U/ml, anisomycin 2.5 μg/ml"}, "p38 [1]": {"system": "p38", "experiment": "p38 activation in 70Z/3 cells transfected with hTNFR1 constructs", "assay_type": "cell-based, mouse", "conditions": "5 min; TNF 1000 U/ml, peptides 10 μM", "procedure": "The cells were then lysed, protein contents quantified and subjected to p38 kinase assay by Western blot. The results are presented as the mean+−sem of 3 experiments.\nThe cells were maintained in RPMI-1640 medium with 4.5 g/L glucose, 2 mM L-glutamine, […] 2-mercaptoethanol and 10% FCS in an atmosphere of 95% air and 5% CO2. Cells were plated onto 10 cm plates at 4×10^7 cells in 15 ml culture medium. Before performing transient transfection, plasmid DNA (hTNFR1), kindly provided by Dr M. Kronke, Institute of Medical Microbiology and Hygiene, Medical Center University of Cologne, Koln, Germany (Adam, D., Wiegmann, K., Adam-Klages, S., Ruff A., and Kronke, M. (1996) J. Biol. Chem. 271: 14617-22), (20 μg in 1 ml of RPMI1640) was mixed with LipofectAMINE 2000 (Invitrogen) (60 μl in 1 ml of RPMI) and the mixture were left at room temperature for 20 min. The mixture was directly added to the cells and incubated for 24 h. The cells were washed twice with HBSS before use."}, "p38 [2]": {"system": "p38", "experiment": "p38 activity in HUVEC (immunoprecipitation, myelin basic protein substrate)", "assay_type": "cell-based, human", "conditions": "5 min; TNF 1,000 U/ml, peptides 10 μM", "procedure": "(§1) The level of myelin basic protein phosphorylation was quantitated by an Instant Imager.\n(§2) KHS (hereon referred to as “GCKR”) activity was assayed as described previously using myelin basic protein as a substrate (Shi, C. S., Leonardi, A., Kyriakis, J., Siebenlist, U., and Kerhl, J. H. (1999) J. Immunol. 163: 3279-3285). ASK-1 activation was determined in immunoprecipitates of ASK-1 by autophosphorylation (Kyriakis, J. M., and Auruch, J. (2001) Physiol. Rev. 81: 807-869). p38 and ERK activities were determined as described using myelin basic protein as a substrate (Hii, C. S., Huang, Z. H., Bilney, A., Costabile, M., Murray, A. W., Rathjen, D. A., Der, C. J., and Ferrante, A. (1998) J. Biol. Chem. 273: 19277-19282). […] A solid phase assay using glutathione-S-transferase (GST)-conjugated-jun (1-79) was employed to assay JNK activity (Hii, C. S., Huang, Z. H., Bilney, A., Costabile, M., Murray, A. W., Rathjen, D. A., Der, C. J., and Ferrante, A. (1998) J. Biol. Chem. 273: 19277-19282). Phosphorylated ASK-1, myelin basic protein and GST-jun (1-79) were fractionated on 8, 16 and 12% SDS polyacrylamide gels, respectively, and the bands were detected and radioactivity determined using an Instant Imager (Packard Instruments, Canberra, Australia)."}, "p38 [3]": {"system": "p38", "experiment": "p38 kinase activity in human neutrophils", "assay_type": "cell-based", "procedure": "(§3) The cells were lysed and the lysate assessed by western blot analysis for the level of dual-phosphorylated ERK1/ERK2 (top panel) and ERK2 protein (bottom panel). […] The level of myelin basic protein phosphorylation was quantitated by an Instant Imager.\nNeutrophils were prepared from peripheral blood of healthy donors by a rapid single-step technique (Kumaratilake, L. M., Rathjen, D. A., Mack, P., Widmer, F., Prasertsiriroj, V., and Ferrante, A. (1995) J. Clin. Invest. 95: 2315-2323) using Hypaque-Ficoll and according to the institution's guidelines on human ethics. […] These were either used as cells in suspension or as adhered neutrophils by adding the cells to plasma coated plates as previously described (Powell, W., Gravel, S., Halwani, F., Hii, C. S., Huang, Z. H., Tan, A. M., and Ferrante, A. (1997) J. Immunol. 159: 2952-2959).\nas §2, §1"}, "neutrophils": {"system": "neutrophils", "experiment": "Neutrophil superoxide production, lucigenin chemiluminescence assay", "assay_type": "cell-based, human", "method": "Neutrophils were pre-treated with varying concentrations of SB203580 for 30 min and then exposed to 10 μM TNF70-80. The lucigenin enhanced chemiluminescence produced by the cells was measured in a luminometer. The peak initial rate of chemiluminescence produced is presented as the mean±sem of six experiments. The response in the presence of the inhibitor is expressed as a % of the control response.\nNeutrophil superoxide production was measured as the chemiluminescence generated by the reduction of lucigenin, essentially as described previously (Kumaratilake, L. M., Rathjen, D. A., Mack, P., Widmer, F., Prasertsiriroj, V., and Ferrante, A. (1995) J. Clin. Invest. 95: 2315-2323). Briefly, to 1×10^6 neutrophils in 400 μl of HBSS was added 100 μl of stimulus and 500 μl of 250 μg/ml of lucigenin. The chemiluminescence was measured in a luminometer (Berthold Technologies, Bad Wildbad, Germany) over a 20 min period and the data imported into Microsoft Excel (Redmond, Wash.).\nThe cells were placed in a water-jacketed luminometer chamber (37° C.) (Autolumat Plus Model LB 953, Berthold Technologies, Bundoora, Australia) and the resulting light output recorded in millivolts (mV) at 10 second intervals. The data was analysed with Multiuser software (Berthold Tubemaster, Bundoora, Australia). The results are expressed as peak superoxide produced.\nVarious concentrations of TNFR1 fragment or diluent were added to neutrophils (106 in 100 μl HBSS) and incubated at 37° C. for 30 min 5% CO2 in air. After incubation 500 μl of lucigenin (250 μM, final), 100 μl of TNF70-80 (100 μg) were added and the final volume was adjusted to 1 ml.\nSuperoxide production by human neutrophils was measured by the reduction of the fluorescent lucigenin, (9,9′-bis(N-methyl-acridinium nitrate) (Sigma Chemical Company). This provides a direct and specific measure of agonist-induced superoxide production. Lucigenin-dependant chemiluminescence was measured as described previously Gyllenhannar H. (1987) J. Immunol. Methods 97:209-213. Briefly, 50 μl of 100 mg/ml of peptide or diluent and 250 ml of lucigenin was added to neutrophils (5×10^5 in 50 μl HBSS). The cells were placed in a water-jacketed luminometer chamber (37° C.) (Autolumat Plus Model LB 953, Berthold Technologies, Bundoora, Australia) and the resulting light output recorded in millivolts (mV) at 10 second intervals. The data was analysed with Multi-user software (Berthold Tubemaster, Bundoora, Australia).\nData are presented as mean±SEM of 3 experiments."}, "ERK1/ERK2": {"system": "ERK1/ERK2", "experiment": "ERK1/ERK2 activation in neutrophils in suspension", "assay_type": "cell-based, human", "conditions": "TNF, TNF70-80 15 min; PMA 100 nM 5 min", "procedure": "as §3\nNeutrophils were prepared from peripheral blood of healthy donors by a rapid single-step technique (Kumaratilake, L. M., Rathjen, D. A., Mack, P., Widmer, F., Prasertsiriroj, V., and Ferrante, A. (1995) J. Clin. Invest. 95: 2315-2323) using Hypaque-Ficoll and according to the institution's guidelines on human ethics. […]\nKHS (hereon referred to as “GCKR”) activity was assayed as described previously using myelin basic protein as a substrate (Shi, C. S., Leonardi, A., Kyriakis, J., Siebenlist, U., and Kerhl, J. H. (1999) J. Immunol. 163: 3279-3285). ASK-1 activation was determined in immunoprecipitates of ASK-1 by autophosphorylation (Kyriakis, J. M., and Auruch, J. (2001) Physiol. Rev. 81: 807-869). p38 and ERK activities were determined as described using myelin basic protein as a substrate (Hii, C. S., Huang, Z. H., Bilney, A., Costabile, M., Murray, A. W., Rathjen, D. A., Der, C. J., and Ferrante, A. (1998) J. Biol. Chem. 273: 19277-19282). […]"}},
  "note": "Where no end group is shown, it is not given here.",
  "data": [
    {"compound": "COc1ccc(C[C@H]2NC[C@H](O)[C@H]2OC(C)=O)cc1", "note": "[anisomycin, reference compound]", "values": [
      {"measurement": "JNK phosphorylation in HL60 cells", "setting": "JNK", "result": "increased JNK phosphorylation"}
    ]},
    {"compound": "H-Gly-Gly-Asp-Pro-Gly-Ile-Val-Thr-His-Ser-OH (H-GGDPGIVTHS-OH) [control peptide 205, control peptide, reference compound]", "values": [
      {"measurement": "p38 activation in 70Z/3 cells transfected with wild type hTNFR1", "setting": "p38 [1]", "result": "failed to activate p38"},
      {"measurement": "activity of p38 in HUVEC", "setting": "p38 [2]", "result": "failed to stimulate p38"},
      {"measurement": "activity of p38 in neutrophils in suspension", "setting": "p38 [3]; 5 min, TNF 100 or 1000 U/ml, TNF70-80 10-50 μM", "result": "did not activate p38"}
    ]},
    {"compound": "His6-Leu-Lys-Pro-Gly-Thr-Thr-OH (HHHHHHLKPGTT-OH; listed as Homo sapiens) [Peptide M4]", "values": [
      {"measurement": "effect on TNF70-80-induced superoxide production in neutrophils", "setting": "neutrophils; TNFR1 fragment pre-incubated with neutrophils 30 min, then TNF70-80 (100 μg)", "result": "can block the biological activity of the TNF70-80"}
    ]},
    {"compound": "CCCCCCCCCCCCCC(=O)O[C@@H]1[C@@H](C)[C@@]2(O)[C@@H](C=C(CO)C[C@]3(O)C(=O)C(C)=C[C@@H]23)[C@@H]2C(C)(C)[C@]12OC(C)=O", "note": "[PMA, reference compound]", "values": [
      {"measurement": "activity/dual phosphorylation of ERK in neutrophils in suspension", "setting": "ERK1/ERK2", "result": "increased the dual phosphorylation of ERK1/ERK2"}
    ]},
    {"compound": "EDSGTT [Peptide M4-3]", "values": [
      {"measurement": "effect on TNF (mononuclear leukocyte fluid)-induced p38 activation in human neutrophils", "setting": "p38 [3]; peptide pre-incubated with TNF medium (≈0.12 ng/ml TNF) 20 min, neutrophils 30 min", "result": "inhibition of TNF (mononuclear leukocyte fluid)-induced p38 activation"}
    ]},
    {"compound": "C[S+]([O-])c1ccc(-c2nc(-c3ccncc3)c(-c3ccc(F)cc3)[nH]2)cc1", "note": "(stereo not drawn) [SB203580, reference compound]", "values": [
      {"measurement": "effect on TNF70-80 stimulated neutrophil chemiluminescence response", "setting": "neutrophils; pre-incubated with inhibitor 30 min, then 10 μM TNF70-80", "result": "significantly reduced"}
    ]},
    {"compound": "H-Gly-Thr-Thr-OH (listed as Homo sapiens) [Peptide M4-2]", "values": [
      {"measurement": "effect on TNF-induced superoxide generation of neutrophils", "setting": "neutrophils; peptide mixed with TNF at 37° C. for 20 min, then added to neutrophils", "result": "Inhibits TNF-Induced Superoxide Generation"}
    ]}
  ]
}
